Here are results for 13 compounds from US20050215772A1, “Furanone derivatives and methods of making same” (priority 2002, published 2005).

Assay [1] deals with AHL mediated quorum sensing. The class given is cell-based.
The test system of assay [2] is AI-2 pathway. Briefly: microbe, parasite or virus in culture. The class given is cell-based, V. harveyi. Conditions: Vibrio harveyi, read-out: AI-2 (% of control).
The subject of assay [3] is Staphylococcus aureus. Briefly: Growth of Staphylococcus aureus. The class given is cell-based. The method, then: The growth of Staphylococcus aureus against furanones was tested in sidearm flasks. One percent of an overnight culture was added to the growth media, Nutrient Broth, containing furanones at the concentrations 1-50 μg/ml. The bacteria were incubated at 37 C and growth was measured at 610 nm.

Assay [4] is classed as cell-based, V. vulnificus.
For assay [5], the system named is V. vulnificus. Briefly: Attachment by V. vulnificus. In kind it is cell-based.

As to `C[C@@]1(Nc2ccccc2)OC(=O)C=C1N`, the AHL result in assay [1] is given as “+ + +”. Moreover, in assay [2], the activity at 5 µg/mL came to 80%, the activity at 10 µg/mL was 57% and the activity at 50 µg/mL was found to be 26%.

On to `CCCCC1=CC(=C(Br)Br)N(c2ccccc2)C1=O`, for which the AHL entry in assay [1] was “+ + +”.

On to `CC1(O)NC(=O)C=C1c1ccccc1` (centres unmarked), for which, in assay [2], the activity at 100 µg/mL is 39%. Further, the activity at 25 µg/mL in assay [3] (Staphylococcus aureus, growth, 25 μg/ml, read-out: S. aureus (% of control)) turned out to be 102%.

Turning to `CCCCC1=C(Br)/C(=C/Nc2ccccc2)OC1=O`, the AHL entry in assay [1] is “+ + + +”. Besides, in assay [2], the activity at 20 µg/mL was 61%. Besides, the “S. aureus (% of control)” value in assay [3] (growth, 50 ug/ml) is recorded as “No effect 50 μg/ml”.

Take `CC1=CC(C)(Nc2ccccc2)OC1=O` (centres unmarked): the AHL entry in assay [1] was “+ +”. In addition, in assay [2], the activity at 100 µg/mL was 50%. Further, the “S. aureus (% of control)” value in assay [3] (growth, 50 ug/ml) is “No effect 50 μg/ml”.

Regarding `C/C=C1\NC(=O)C=C1C`, the AHL result in assay [1] is given as “+ + +”. Moreover, the “S. aureus (% of control)” value in assay [3] (growth, 50 ug/ml) is recorded as “No effect 50 μg/ml”.

Take `CCCCCCCC1=CC(=O)N(c2ccccc2)C1(O)CBr` (centres unmarked): the AHL entry in assay [1] is “+ + +”.

Consider `CCCCC1=CC(=C(Br)Br)N(CCOC(=O)C(F)(F)F)C1=O`, for which the AHL entry in assay [1] was “+ + +”. For the same compound, in assay [3] (growth, 50 ug/ml), the “S. aureus (% of control)” value was “No effect (50 μg/ml)”.

Regarding `CCCCC1=CC(=C(Br)Br)N(CCOS(=O)(=O)c2ccc(C)cc2)C1=O`, in assay [1], the AHL entry is “+ +”. In addition, in assay [3] (growth, 50 ug/ml), the “S. aureus (% of control)” value was “No effect (50 μg/ml)”.

With `CCCC(Br)C1=CC(=C(Br)Br)N(c2ccccc2)C1=O` (centres unmarked) [drawing 24], the AHL result in assay [1] is given as “+ + + +”. Moreover, in assay [3] (growth for 10 hrs, concentration not given), the “S. aureus (% of control)” value was 0% growth at ug/ml for 10 hrs % of control.

As for `O=C1C=C(Br)/C(=C/Nc2ccccc2)O1` [drawing 26], the AHL result in assay [1] was “+ + +”. Also, the activity at 50 µg/mL in assay [2] turned out to be 2%; in assay [3] (Staphylococcus aureus, growth, 50 ug/ml, read-out: S. aureus (% of control)) it was 104%.

Take `O=C1C=C(Br)/C(=C/Nc2ccccc2)O1` [drawing 35]: the “reduction in swimming motility” value in assay [4] is 40-50% reduction in swimming motility in V. cholerae and V. vulnificus. Also, the reduction in attachment in assay [5] is 30% reduction in attachment by V. vulnificus.

Consider `CCCC(Br)C1=CC(=C(Br)Br)N(c2ccccc2)C1=O` (centres unmarked) [drawing 37], for which the “reduction in swimming motility” value in assay [4] is 40-50% reduction in swimming motility in V. cholerae and V. vulnificus. In assay [5], the reduction in attachment is given as 30% reduction in attachment by V. vulnificus.
